pKd: −log10 of the molar value. Values joined by “and” are separate entries in the source; they are usually repeats but may differ in a detail not shown here. Equal entries are not always repeated. Where two headings read alike, the source gives them in different places. Peptide text beside a SMILES is read from it. * marks the point of attachment. αGalNAc = CC(=O)N[C@@H]1[C@@H](O)[C@@H](O)[C@@H](CO)O[C@@H]1*

Consider six compounds from paper PMC9065035, “Structural basis for the synthesis of the core 1 structure by C1GalT1” (Nature Communications, 2022).

For experiment [1], the target named is T1, DmC1GalT1^T43-Q388 (Drosophila melanogaster, UniProt Q7K237). The experiment in a line: Isothermal titration calorimetry (ITC). The format is binding. More on the design: made in house. As to the method: ITC was used to characterize the interaction of DmC1GalT1^T43-Q388 with UDP, APDT*RP with and without UDP, APDTRP with UDP, and P4/P7 with and without UDP. All experiments were carried out in an Auto-iTC200 (Microcal, GE Healthcare) at 20 °C. The titration of DmC1GalT1^T43-Q388 with UDP was carried out at 100 μM of the enzyme with 800 μM UDP in 25 mM TRIS pH 7.5, 150 mM NaCl and 1 mM MnCl2. The titrations with APDT*RP and P4/P7 in the absence of UDP were carried out at 60 μM of the enzyme with 2 mM P4/P7 in 25 mM TRIS pH 7.5, 150 mM NaCl and 1 mM MnCl2. To determine the Kds for APDT*RP, APDTRP and P4/P7 under an excess of UDP, the experiments were made in 25 mM TRIS pH 7.5, 150 mM NaCl, 1 mM UDP and 1 mM MnCl2. The concentration of the enzyme was 60 μM for the titrations of APDT*RP and APDTRP and 50 μM for the titration with P4/P7. The concentration of the (glyco)peptides was 2 mM in all the ITC experiments. The experiments were performed in duplicate. Data integration, correction and analysis were carried out in Origin 7 (Microcal). The data were fit to a one-site equilibrium-binding model. Stoichiometry (n) of binding in all cases was ~1:1 except for UDP whose n = 0.4.
In general terms: Isothermal titration calorimetry measures the heat released or taken up as one component is titrated into another.

Experiment [2] has as its target T1, DmC1GalT1^T43-Q388. The experiment in a line: UDP-Glo glycosylation kinetics of DmC1GalT1 T43-Q388. The note with it: for kcat app/Km app (catalytic efficiency): ± standard error; for Km: read-out: Km app.
Experiment [3] has as its target T1, DmC1GalT1^T43-Q388. The experiment in a line: STD NMR experiments. To be noted: for STD response: presence of UDP ([…]) and 150 µM MnCl2, 20 µM enzyme, 710 µM ligand. The class given is binding. More on the design: made in house. As to the method:
STD NMR experiments were performed using a 1:35 molar ratio, defined by 20 μM DmC1GalT1^T43-Q388 and 710 μM ligands (α-O-methyl-GalNAc, and (glyco)peptides), and 25 mM Tris(D11)-DCl buffer, pD 7.5, with 150 mM NaCl and 150 µM MnCl2 in D2O. […] In the presence of 150 µM MnCl2, strong paramagnetic relaxation enhancements are observed for UDP, which prevents the observation of UDP proton signals in the NMR spectra. […] STD NMR spectra (stddiffesgp pulse sequence from Bruker pulse program library) were acquired with 1728 scans and 64 K data points, in a spectral window of 12335.53 Hz centered at 2818 Hz. Selective saturation (on resonance) was performed by irradiating at 7 and/or −0.5 ppm (depending if the ligand contains or not aromatic residues) using a series of 40 Eburp2.1000-shaped (from Bruker shaped pulses library) 90° pulses (50 ms) for a total saturation time of 2 s, and a relaxation delay of 4 s. For the reference spectrum (off resonance), the samples were irradiated at 100 ppm. Proper control experiments were performed for each ligand in the absence of protein and residual STD signals of the methyl groups of Ala/Thr were observed. […] Protein control experiments were also accomplished using DmC1GalT1^T43-Q388 in absence of a ligand and also subtracted from STD experiment. The STD spectrum (ISTD) was obtained by subtracting the on-resonance spectrum (Ion) to the off-resonance spectrum (Ioff). The % of STD (ISTD/Ioff × 100) was estimated by comparing the intensity of the signals in the STD spectrum (ISTD) with the signal intensities of the reference spectrum (Ioff). The STD amplification factor (STDAF) was also estimated by multiplying the % STD values by the ligand excess, which in the case of our experiments was 35 for every ligand. To determine the STD-derived epitope map the relative % of STD were calculated by setting to 100% the STD signal of the proton with the highest STD intensity and calculating the others accordingly (Supplementary Tables 2–4). Some protons were not able to be assessed with accuracy due to the use of water suppression or low signal/noise ratio and display a blue circle in the STD-derived epitope maps. Moreover, the resonances overlapped on the ^1H-NMR spectrum were considered in STD estimation and are labelled as *.

[4] abbreviates: Kd, excess UDP (1 mM UDP, 1 mM MnCl2), 2 mM (glyco)peptide, 50–60 µM enzyme, 25 mM TRIS pH 7.5, 150 mM NaCl, 20 °C, one-site fit ± fit error, n = 2.
The mark [5] stands for this setting: acceptor varied, 500 µM UDP-Gal, 500 nM enzyme, pH 7.5, 30 min 37 °C, n = 2.
[6] abbreviates: Kd, absence of UDP, 2 mM glycopeptide, 60 µM enzyme, 25 mM TRIS pH 7.5, 150 mM NaCl, 1 mM MnCl2, 20 °C, one-site fit ± fit error, n = 2.
Setting [7] is: UDP titration, 1 mM MnCl2, 20 °C.
Setting [8] is: acceptor varied, 500 µM UDP-Gal, 500 nM enzyme, pH 7.5, 30 min 37 °C, Michaelis–Menten fit ± standard error, n = 2.
Setting [9] is: acceptor substrate varied (P1–P7 12.5–500 µM; APDT*RP/APDS*RP 12.5–1000 µM; α-O-methyl-GalNAc up to 2 mM), 500 µM UDP-Gal, 500 nM enzyme, 25 mM Tris pH 7.5, 150 mM NaCl, 50 µM MnCl2, 1 mg/ml BSA, 30 min 37 °C, Michaelis–Menten fit ± standard error, n = 2.
[10] abbreviates: excess UDP (1 mM), 1 mM MnCl2, 20 °C.

T1 sequence (Q7K237 43-388): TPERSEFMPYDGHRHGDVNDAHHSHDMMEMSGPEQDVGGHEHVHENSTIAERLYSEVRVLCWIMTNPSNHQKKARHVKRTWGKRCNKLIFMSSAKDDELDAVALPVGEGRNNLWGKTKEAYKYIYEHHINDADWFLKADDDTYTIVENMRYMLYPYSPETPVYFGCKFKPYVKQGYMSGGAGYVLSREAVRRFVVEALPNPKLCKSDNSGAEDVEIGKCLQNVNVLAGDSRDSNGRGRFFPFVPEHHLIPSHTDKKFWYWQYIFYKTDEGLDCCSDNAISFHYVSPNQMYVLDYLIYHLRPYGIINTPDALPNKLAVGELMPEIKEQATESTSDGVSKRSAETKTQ

Regarding `CC(=O)N[C@H]1[C@@H](O[C@H](C)[C@H](NC(=O)[C@H](CC(=O)O)NC(=O)[C@@H]2CCCN2C(=O)[C@H](C)N)C(=O)N[C@@H](CCCNC(=N)N)C(=O)N2CCC[C@H]2C(N)=O)O[C@H](CO)[C@H](O)[C@@H]1O` [APDT*RP], the pKd (as a rule, −log10 of the Kd, conventionally taken in molar units) on DmC1GalT1^T43-Q388 [1] (setting [4]) is 3.76. The Kd result on DmC1GalT1^T43-Q388 [1] (absence of UDP, 2 mM glycopeptide, 60 µM enzyme, 25 mM TRIS pH 7.5, 150 mM NaCl, 1 mM MnCl2, 20 °C, one-site fit ± fit error, n = 2) is on record as “Not measurable under our conditions”. Besides, on DmC1GalT1^T43-Q388 [2] (setting [5]), the “kcat app/Km app (catalytic efficiency)” value was 300 ± 67 M⁻¹ s⁻¹ and 301.5 M⁻¹ s⁻¹.

`CC(=O)N[C@H]1[C@@H](O[C@H](C)[C@H](NC(=O)[C@H](C)NC(=O)[C@H](C)NC(=O)[C@@H]2CCCN2)C(=O)NCC(=O)N2CCC[C@H]2C(=O)N[C@@H](Cc2ccc(O)cc2)C(N)=O)O[C@H](CO)[C@H](O)[C@@H]1O` [P4] (H-PAAT(αGalNAc)GPY-NH2) showed a pKd at DmC1GalT1^T43-Q388 [1] (setting [6]) of 4.39. Further, at DmC1GalT1^T43-Q388 [2] (setting [5]), the “kcat app/Km app (catalytic efficiency)” value is 1130 ± 100 M⁻¹ s⁻¹ and 1127 M⁻¹ s⁻¹.

With `CC(=O)N[C@H]1[C@@H](O[C@H](C)[C@H](NC(=O)[C@H](CC(=O)O)NC(=O)[C@H](C)NC(=O)[C@@H](N)Cc2ccc(O)cc2)C(=O)NCC(=O)N2CCC[C@H]2C(=O)N[C@@H](Cc2ccccc2)C(N)=O)O[C@H](CO)[C@H](O)[C@@H]1O` [P7] (H-YADT(αGalNAc)GPF-NH2), the results for the pKd at DmC1GalT1^T43-Q388 [1] (setting [6]) and on DmC1GalT1^T43-Q388 [1] (setting [4]) were 4.43 and 4.22, respectively. In addition, the “kcat app/Km app (catalytic efficiency)” value at DmC1GalT1^T43-Q388 [2] (setting [5]) is 478.8 M⁻¹ s⁻¹.

On DmC1GalT1^T43-Q388 [1], `O=c1ccn([C@@H]2O[C@H](COP(=O)(O)OP(=O)(O)O)[C@@H](O)[C@H]2O)c(=O)[nH]1` [UDP] showed a pKd of 4.74. The “binding, fold stronger than binding of APDT*RP” value on DmC1GalT1^T43-Q388 [1] (ITC, relative to APDT*RP) was ~ 9.5 fold. Further, on DmC1GalT1^T43-Q388 [1] (setting [7]), the “n (stoichiometry of binding)” value amounted to 0.4 and the ΔH was -4.264 ± 0.471 kcal/mol.

As to `CO[C@H]1O[C@H](CO)[C@H](O)[C@H](O)[C@H]1NC(C)=O` [α-O-methyl-GalNAc], at DmC1GalT1^T43-Q388 [3] (on resonance 7 ppm), the “STDAF, CH3 (NHAc) GalNAc” value is given as 20.0; the “STDAF, H2 GalNAc” value was 45.0; the “STDAF, H3 GalNAc” value stood at 24.9; the “STDAF, H4 GalNAc” value is 27.9. Moreover, at DmC1GalT1^T43-Q388 [3] (on resonance 7 ppm), the “STDAF, H5-GalNAc” value is on record as 25.8; the “STDAF, H6-GalNAc” value turned out to be 29.5; the “STDAF, OMe” value is 16.6; the “relative % STD, CH3 (NHAc) GalNAc” value was 44%. Besides, at DmC1GalT1^T43-Q388 [3] (on resonance 7 ppm), the “relative % STD, H3 GalNAc” value is listed as 55%; the “relative % STD, H4 GalNAc” value is given as 62%; the “relative % STD, H5-GalNAc” value came out at 57%; the “relative % STD, H6-GalNAc” value is 66%. The “relative % STD, OMe” value at DmC1GalT1^T43-Q388 [3] (on resonance 7 ppm) is 37%. Moreover, at DmC1GalT1^T43-Q388 [3] (on resonance -0.5 ppm), the “STDAF, CH3 (NHAc) GalNAc” value is 18.9; the “STDAF, H3 GalNAc” value is 20.0; the “STDAF, H4 GalNAc” value is reported as 28.7; the “STDAF, H6-GalNAc” value was determined as 23.6. On DmC1GalT1^T43-Q388 [3] (on resonance -0.5 ppm), the “STDAF, OMe” value was found to be 17.6; the “relative % STD, CH3 (NHAc) GalNAc” value is listed as 61%; the “relative % STD, H3 GalNAc” value came to 65%; the “relative % STD, H4 GalNAc” value came to 93%. Also, at DmC1GalT1^T43-Q388 [3] (on resonance -0.5 ppm), the “relative % STD, H6-GalNAc” value is 77% and the “relative % STD, OMe” value is recorded as 57%. Moreover, the “STDAF, H2 GalNAc” value on DmC1GalT1^T43-Q388 [3] (on resonance -0.5 ppm, […] UDP, 150 µM MnCl2, 298 K) is given as 30.7. Also, the “STD response” value at DmC1GalT1^T43-Q388 [3] was “clearly presented STD enhancements”. In addition, the “activity as acceptor substrate” value on DmC1GalT1^T43-Q388 [2] (500 µM UDP-Gal) is on record as “kinetic parameters could not be determined”. The Vmax app on DmC1GalT1^T43-Q388 [2] (setting [8]) worked out at 548.9 nmol/min/mg. Also, on DmC1GalT1^T43-Q388 [2] (at a saturating concentration of the glycopeptides (~500 µM)), the “initial activity relative to that achieved with APDT*RP” value is recorded as “half”. For the same compound, at DmC1GalT1^T43-Q388 [2] (setting [9]), the Km (as a rule, the concentration of substrate that gives half-maximal velocity) came to 10.3 mM. The “saturation of the enzyme” value at DmC1GalT1^T43-Q388 [2] (up to 2 mM substrate) was “did not reach saturation up to 2 mM”.

In the case of APDTRP, the Kd result at DmC1GalT1^T43-Q388 [1] (excess UDP (1 mM UDP, 1 mM MnCl2), 2 mM (glyco)peptide, 50–60 µM enzyme, 25 mM TRIS pH 7.5, 150 mM NaCl, 20 °C, one-site fit ± fit error, n = 2) is recorded as “Not measurable under our conditions”. Also, at DmC1GalT1^T43-Q388 [1] (setting [10]), the “-TΔS” value is reported as “Not measurable under our conditions”, the “n (stoichiometry of binding)” value is “Not measurable under our conditions”, the ΔG entry was “Not measurable under our conditions” and the ΔH result is recorded as “Not measurable under our conditions”. Further, the “binding by ITC” value at DmC1GalT1^T43-Q388 [1] (presence of an excess of UDP) is “no binding”. Besides, the “STD response” value at DmC1GalT1^T43-Q388 [3] was “did not display STD response”. Further, the “activity as acceptor substrate” value at DmC1GalT1^T43-Q388 [2] (500 µM UDP-Gal) is “inactive”. In addition, at DmC1GalT1^T43-Q388 [2] (setting [9]), the Km app result was “not active” and the Km is approximately 0.05 mM. The kcat app result at DmC1GalT1^T43-Q388 [2] (setting [8]) was “not active”. For the same compound, the “kcat app/Km app (catalytic efficiency)” value on DmC1GalT1^T43-Q388 [2] (setting [5]) is “not active”.
